Data taken from ChEMBL document CHEMBL5653615 (J Biol Chem, 2013).

Legend:
[1] = biological target: STE20/SPS1-related proline-alanine-rich protein kinase (Homo sapiens) (UniProt Q9UEW8); test: Inhibition of human STLK3 at 500 nM by HotSpot assay relative to control
[2] = biological target: T1, Serine/threonine-protein kinase Nek3 (Homo sapiens) (UniProt P51956); test: Inhibition of human NEK3 at 500 nM by HotSpot assay relative to control
T1 sequence (whole entry): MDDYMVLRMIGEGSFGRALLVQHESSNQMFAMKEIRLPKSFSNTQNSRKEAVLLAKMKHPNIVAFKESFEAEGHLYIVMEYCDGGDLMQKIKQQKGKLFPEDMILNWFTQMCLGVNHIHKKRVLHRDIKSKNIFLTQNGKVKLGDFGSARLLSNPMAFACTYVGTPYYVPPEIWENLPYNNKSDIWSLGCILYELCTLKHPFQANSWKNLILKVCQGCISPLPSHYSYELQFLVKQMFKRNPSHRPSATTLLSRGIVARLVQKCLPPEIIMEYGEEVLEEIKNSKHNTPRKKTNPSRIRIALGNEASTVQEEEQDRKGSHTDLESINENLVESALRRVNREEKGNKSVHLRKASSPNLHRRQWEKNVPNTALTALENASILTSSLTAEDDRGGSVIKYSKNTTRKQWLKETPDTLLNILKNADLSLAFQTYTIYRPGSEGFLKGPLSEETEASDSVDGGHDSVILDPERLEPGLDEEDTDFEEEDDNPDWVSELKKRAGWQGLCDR

[3] = biological target: Receptor-interacting serine/threonine-protein kinase 2 (Homo sapiens) (UniProt O43353); test: Inhibition of human RIPK2 at 500 nM by HotSpot assay relative to control
Sequence of Receptor-interacting serine/threonine-protein kinase 2 (Homo sapiens) (O43353 whole entry): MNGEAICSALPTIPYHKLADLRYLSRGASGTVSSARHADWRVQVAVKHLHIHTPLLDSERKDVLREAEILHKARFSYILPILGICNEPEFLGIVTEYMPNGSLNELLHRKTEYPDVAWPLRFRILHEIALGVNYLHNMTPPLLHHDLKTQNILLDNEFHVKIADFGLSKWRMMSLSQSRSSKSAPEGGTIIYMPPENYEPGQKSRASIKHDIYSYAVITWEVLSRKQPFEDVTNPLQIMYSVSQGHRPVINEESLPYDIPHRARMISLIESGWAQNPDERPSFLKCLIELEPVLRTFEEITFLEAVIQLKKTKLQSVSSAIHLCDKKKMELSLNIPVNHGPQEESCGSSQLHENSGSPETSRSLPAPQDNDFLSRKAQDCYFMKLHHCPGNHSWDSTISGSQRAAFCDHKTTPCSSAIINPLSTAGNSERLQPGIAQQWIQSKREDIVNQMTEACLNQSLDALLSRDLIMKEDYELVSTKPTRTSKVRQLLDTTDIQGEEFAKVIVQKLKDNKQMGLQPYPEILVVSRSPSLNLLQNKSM

[4] = biological target: Dual specificity mitogen-activated protein kinase kinase 1 (Homo sapiens) (UniProt Q02750); test: Inhibition of human MEK1 at 500 nM by HotSpot assay relative to control
[5] = biological target: Ribosomal protein S6 kinase alpha-2 (Homo sapiens) (UniProt Q15349); test: Inhibition of human RSK3 at 500 nM by HotSpot assay relative to control
[6] = biological target: T2, Interleukin-1 receptor-associated kinase 4 (Homo sapiens) (UniProt Q9NWZ3); test: Inhibition of human IRAK4 at 500 nM by HotSpot assay relative to control
T2 sequence (whole entry): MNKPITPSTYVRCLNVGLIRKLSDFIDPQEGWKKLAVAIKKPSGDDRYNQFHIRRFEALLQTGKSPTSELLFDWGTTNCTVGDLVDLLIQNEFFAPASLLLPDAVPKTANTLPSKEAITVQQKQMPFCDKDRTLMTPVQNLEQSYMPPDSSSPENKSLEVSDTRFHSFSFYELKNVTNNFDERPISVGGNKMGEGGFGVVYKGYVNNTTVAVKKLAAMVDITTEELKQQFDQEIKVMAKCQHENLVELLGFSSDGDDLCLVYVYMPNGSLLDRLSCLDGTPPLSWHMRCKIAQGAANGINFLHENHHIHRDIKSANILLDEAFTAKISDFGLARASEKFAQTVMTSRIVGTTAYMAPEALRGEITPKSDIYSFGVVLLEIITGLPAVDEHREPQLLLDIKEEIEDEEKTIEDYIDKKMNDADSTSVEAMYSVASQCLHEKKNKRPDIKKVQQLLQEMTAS

[7] = biological target: Mitogen-activated protein kinase 8 (Homo sapiens) (UniProt P45983); test: Inhibition of human JNK1 at 500 nM by HotSpot assay relative to control
Sequence of Mitogen-activated protein kinase 8 (Homo sapiens) (P45983 whole entry): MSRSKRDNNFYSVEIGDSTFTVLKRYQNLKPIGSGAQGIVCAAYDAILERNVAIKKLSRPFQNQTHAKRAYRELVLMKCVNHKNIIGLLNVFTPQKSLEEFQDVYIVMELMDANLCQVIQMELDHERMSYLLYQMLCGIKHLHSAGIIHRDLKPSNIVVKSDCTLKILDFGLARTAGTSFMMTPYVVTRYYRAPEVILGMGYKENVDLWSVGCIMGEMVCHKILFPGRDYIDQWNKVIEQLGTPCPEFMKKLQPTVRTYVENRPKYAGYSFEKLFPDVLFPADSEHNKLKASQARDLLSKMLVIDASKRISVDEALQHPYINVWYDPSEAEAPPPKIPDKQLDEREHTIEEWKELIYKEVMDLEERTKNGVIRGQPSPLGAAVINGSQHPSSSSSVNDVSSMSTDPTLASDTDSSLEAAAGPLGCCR

[8] = biological target: T3, Tyrosine-protein kinase Mer (Homo sapiens) (UniProt Q12866); test: Inhibition of human c-MER at 500 nM by HotSpot assay relative to control
T3 sequence (whole entry): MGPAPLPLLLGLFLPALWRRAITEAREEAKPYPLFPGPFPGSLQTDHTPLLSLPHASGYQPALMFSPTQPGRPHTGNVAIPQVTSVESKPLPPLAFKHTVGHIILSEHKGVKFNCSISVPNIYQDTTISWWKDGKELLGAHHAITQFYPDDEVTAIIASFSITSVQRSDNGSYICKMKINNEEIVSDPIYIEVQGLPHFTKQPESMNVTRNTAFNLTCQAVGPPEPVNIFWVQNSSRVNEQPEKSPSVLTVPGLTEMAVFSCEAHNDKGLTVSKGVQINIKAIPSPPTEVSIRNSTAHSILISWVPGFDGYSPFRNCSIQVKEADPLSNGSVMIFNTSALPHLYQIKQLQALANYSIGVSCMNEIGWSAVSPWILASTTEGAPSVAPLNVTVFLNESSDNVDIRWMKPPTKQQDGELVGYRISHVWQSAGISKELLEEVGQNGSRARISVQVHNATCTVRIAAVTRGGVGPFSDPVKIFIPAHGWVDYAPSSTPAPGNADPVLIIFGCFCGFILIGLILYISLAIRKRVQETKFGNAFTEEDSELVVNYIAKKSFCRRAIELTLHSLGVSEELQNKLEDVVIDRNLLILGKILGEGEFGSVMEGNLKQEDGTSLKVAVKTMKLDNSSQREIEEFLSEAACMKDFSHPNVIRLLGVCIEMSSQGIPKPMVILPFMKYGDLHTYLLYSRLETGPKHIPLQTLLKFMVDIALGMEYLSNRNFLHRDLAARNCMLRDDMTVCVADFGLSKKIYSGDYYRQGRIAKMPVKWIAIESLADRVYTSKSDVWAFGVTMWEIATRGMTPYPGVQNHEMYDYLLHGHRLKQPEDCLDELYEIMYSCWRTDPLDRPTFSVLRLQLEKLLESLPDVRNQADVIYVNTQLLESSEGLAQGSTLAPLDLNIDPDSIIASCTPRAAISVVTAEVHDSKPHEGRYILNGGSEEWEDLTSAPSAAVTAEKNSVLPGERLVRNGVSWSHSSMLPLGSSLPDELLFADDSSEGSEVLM

[9] = biological target: Ribosomal protein S6 kinase alpha-6 (Homo sapiens) (UniProt Q9UK32); test: Inhibition of human RSK4 at 500 nM by HotSpot assay relative to control
Sequence of Ribosomal protein S6 kinase alpha-6 (Homo sapiens) (Q9UK32 whole entry): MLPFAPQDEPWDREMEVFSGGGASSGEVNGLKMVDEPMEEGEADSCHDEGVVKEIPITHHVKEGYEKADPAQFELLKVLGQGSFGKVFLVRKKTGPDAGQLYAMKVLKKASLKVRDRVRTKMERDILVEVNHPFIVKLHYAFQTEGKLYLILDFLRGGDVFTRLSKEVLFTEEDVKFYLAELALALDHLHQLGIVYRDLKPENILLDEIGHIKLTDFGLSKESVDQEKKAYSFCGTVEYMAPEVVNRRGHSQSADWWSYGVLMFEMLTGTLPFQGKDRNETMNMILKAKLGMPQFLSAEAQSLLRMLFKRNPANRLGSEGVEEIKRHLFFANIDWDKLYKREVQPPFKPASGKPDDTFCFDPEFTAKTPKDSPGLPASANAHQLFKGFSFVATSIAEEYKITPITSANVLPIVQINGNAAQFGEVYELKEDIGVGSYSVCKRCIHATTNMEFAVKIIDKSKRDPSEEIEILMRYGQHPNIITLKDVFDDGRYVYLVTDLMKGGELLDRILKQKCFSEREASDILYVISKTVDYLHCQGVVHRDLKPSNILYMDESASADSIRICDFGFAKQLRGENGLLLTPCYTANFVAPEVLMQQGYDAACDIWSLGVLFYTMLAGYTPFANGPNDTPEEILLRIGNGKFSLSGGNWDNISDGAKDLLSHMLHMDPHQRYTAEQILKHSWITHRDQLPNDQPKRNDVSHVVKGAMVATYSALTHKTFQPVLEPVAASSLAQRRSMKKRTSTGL

[10] = biological target: Aurora kinase B (Homo sapiens) (UniProt Q96GD4); test: Inhibition of human Aurora B at 500 nM by HotSpot assay relative to control
Sequence of Aurora kinase B (Homo sapiens) (Q96GD4 whole entry): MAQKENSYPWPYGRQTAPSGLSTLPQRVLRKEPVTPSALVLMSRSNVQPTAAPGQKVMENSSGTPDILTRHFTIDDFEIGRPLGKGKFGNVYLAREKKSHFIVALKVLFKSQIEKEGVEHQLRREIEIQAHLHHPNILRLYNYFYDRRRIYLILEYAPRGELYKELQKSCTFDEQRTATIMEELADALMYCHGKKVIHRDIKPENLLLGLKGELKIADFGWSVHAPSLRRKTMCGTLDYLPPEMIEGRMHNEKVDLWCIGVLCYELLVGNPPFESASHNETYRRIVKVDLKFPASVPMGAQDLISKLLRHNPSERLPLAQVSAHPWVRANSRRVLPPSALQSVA

[11] = biological target: Calcium/calmodulin-dependent protein kinase type II subunit alpha (Homo sapiens) (UniProt Q9UQM7); test: Inhibition of human CAMK2a at 500 nM by HotSpot assay relative to control
Sequence of Calcium/calmodulin-dependent protein kinase type II subunit alpha (Homo sapiens) (Q9UQM7 whole entry): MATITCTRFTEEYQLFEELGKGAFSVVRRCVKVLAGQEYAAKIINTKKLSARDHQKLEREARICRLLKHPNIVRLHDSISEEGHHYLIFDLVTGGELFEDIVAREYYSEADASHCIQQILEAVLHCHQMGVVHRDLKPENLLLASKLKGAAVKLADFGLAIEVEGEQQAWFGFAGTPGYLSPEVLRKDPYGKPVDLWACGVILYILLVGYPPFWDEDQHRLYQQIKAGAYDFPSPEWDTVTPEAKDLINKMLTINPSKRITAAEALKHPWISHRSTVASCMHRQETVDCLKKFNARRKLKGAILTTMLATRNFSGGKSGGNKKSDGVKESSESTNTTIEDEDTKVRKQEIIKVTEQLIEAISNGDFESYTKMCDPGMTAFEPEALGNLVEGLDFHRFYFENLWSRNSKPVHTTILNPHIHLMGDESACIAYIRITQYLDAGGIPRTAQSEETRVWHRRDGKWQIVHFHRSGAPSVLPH

[12] = biological target: Mitogen-activated protein kinase 10 (Homo sapiens) (UniProt P53779); test: Inhibition of human JNK3 at 500 nM by HotSpot assay relative to control
Sequence of Mitogen-activated protein kinase 10 (Homo sapiens) (P53779 whole entry): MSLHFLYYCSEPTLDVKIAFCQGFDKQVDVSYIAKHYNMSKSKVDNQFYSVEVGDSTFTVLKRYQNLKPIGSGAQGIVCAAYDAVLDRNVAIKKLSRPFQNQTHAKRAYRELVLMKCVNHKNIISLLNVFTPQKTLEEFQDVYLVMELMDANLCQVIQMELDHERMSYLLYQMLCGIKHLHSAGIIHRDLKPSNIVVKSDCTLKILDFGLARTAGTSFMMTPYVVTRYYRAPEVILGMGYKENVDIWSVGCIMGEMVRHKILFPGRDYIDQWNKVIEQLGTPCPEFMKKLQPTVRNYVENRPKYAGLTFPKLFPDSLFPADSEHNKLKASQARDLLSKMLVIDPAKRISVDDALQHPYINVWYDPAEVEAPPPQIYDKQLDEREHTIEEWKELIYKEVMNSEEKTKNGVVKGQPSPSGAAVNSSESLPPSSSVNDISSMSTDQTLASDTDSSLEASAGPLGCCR

[13] = biological target: Non-receptor tyrosine-protein kinase TYK2 (Homo sapiens) (UniProt P29597); test: Inhibition of human TYK2 at 500 nM by HotSpot assay relative to control
Sequence of Non-receptor tyrosine-protein kinase TYK2 (Homo sapiens) (P29597 whole entry): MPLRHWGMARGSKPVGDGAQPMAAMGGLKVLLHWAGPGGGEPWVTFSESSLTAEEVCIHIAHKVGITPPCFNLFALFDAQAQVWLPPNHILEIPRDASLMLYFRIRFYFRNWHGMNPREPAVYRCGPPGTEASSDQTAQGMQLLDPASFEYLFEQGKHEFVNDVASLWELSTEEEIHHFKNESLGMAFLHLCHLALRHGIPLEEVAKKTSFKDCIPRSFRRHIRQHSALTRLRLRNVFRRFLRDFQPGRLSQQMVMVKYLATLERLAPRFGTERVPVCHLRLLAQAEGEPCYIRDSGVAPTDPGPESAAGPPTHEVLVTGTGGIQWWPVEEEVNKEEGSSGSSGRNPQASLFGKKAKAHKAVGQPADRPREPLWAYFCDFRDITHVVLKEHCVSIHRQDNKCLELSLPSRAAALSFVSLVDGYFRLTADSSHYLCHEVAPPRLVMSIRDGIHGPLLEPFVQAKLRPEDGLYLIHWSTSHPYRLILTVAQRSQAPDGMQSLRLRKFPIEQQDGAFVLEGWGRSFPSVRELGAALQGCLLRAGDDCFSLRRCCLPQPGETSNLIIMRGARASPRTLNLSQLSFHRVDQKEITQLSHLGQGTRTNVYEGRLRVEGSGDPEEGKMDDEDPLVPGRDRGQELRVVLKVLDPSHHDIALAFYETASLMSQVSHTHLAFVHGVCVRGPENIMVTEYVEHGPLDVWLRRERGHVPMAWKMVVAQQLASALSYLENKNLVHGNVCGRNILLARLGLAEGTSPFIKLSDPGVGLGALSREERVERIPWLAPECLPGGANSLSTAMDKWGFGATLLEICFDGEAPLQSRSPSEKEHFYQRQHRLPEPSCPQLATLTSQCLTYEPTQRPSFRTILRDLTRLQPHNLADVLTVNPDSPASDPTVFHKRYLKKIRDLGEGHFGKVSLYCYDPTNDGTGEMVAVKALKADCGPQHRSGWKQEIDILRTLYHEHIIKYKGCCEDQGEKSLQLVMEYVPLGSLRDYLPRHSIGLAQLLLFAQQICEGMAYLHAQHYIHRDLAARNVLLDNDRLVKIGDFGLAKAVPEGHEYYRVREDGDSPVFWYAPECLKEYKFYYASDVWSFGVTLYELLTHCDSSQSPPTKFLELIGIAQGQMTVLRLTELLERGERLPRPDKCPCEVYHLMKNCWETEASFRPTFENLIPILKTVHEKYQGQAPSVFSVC

[14] = biological target: Dual specificity protein kinase CLK2 (Homo sapiens) (UniProt P49760); test: Inhibition of human CLK2 at 500 nM by HotSpot assay relative to control
[15] = biological target: Mitogen-activated protein kinase kinase kinase 8 (Homo sapiens) (UniProt P41279); test: Inhibition of human COT1 at 500 nM by HotSpot assay relative to control
Sequence of Mitogen-activated protein kinase kinase kinase 8 (Homo sapiens) (P41279 whole entry): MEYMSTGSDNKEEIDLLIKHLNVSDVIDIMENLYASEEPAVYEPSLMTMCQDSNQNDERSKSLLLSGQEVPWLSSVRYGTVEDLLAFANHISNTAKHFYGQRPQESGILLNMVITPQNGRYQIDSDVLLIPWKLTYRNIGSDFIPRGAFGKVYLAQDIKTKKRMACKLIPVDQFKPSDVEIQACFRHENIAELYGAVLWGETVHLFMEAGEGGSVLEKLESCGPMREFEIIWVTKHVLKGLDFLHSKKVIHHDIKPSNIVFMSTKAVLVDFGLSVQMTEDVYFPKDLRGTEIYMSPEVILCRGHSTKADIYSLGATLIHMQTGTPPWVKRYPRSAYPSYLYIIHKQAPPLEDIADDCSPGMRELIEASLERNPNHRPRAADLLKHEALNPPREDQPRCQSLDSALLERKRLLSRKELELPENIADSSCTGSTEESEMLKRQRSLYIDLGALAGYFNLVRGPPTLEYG

| SMILES | inhibition [1] [%] | inhibition [2] [%] | inhibition [3] [%] | inhibition [4] [%] | inhibition [5] [%] | inhibition [6] [%] | inhibition [7] [%] | inhibition [8] [%] | inhibition [9] [%] | inhibition [10] [%] | inhibition [11] [%] | inhibition [12] [%] | inhibition [13] [%] | inhibition [14] [%] | inhibition [15] [%] |
| --- | --- | --- | --- | --- | --- | --- | --- | --- | --- | --- | --- | --- | --- | --- | --- |
| Nc1n[nH]c2nnc(-c3c(-c4ccccc4)nn4ccccc34)cc12 | 10.9 | 17.3 | 13 | 5.65 | 3.51 | -5.42 | 1.96 | 23.6 | 4.48 | 3.24 | -2.07 | -3.19 | -3.67 | -1.46 | 4.98 |
| Oc1n[nH]c2nnc(-c3c(-c4ccccc4)nn4ccccc34)cc12 | 7.91 | 12.8 | 11.9 | 5.15 | -4.14 | -3.11 | 16.7 | 2 | -2.71 | 2.45 | -5.26 | 5.98 | -3.67 | 2.49 | 4.58 |
